Measurements taken from patent publication US8415384B2, “Reducing myocardial reperfusion injury by the combination therapy of protein kinase A activation and B1-adrenergic receptor blockade” (The Board of Regents of the University of Texas System, priority 2008, dated 2013).
Read-outs that look alike come from different tables or passages of the source. Where no end group is shown, it is not given here.

How the values were obtained:
[1] = test system: rat myocardial ischemia-reperfusion model; experiment: rat myocardial ischemia-reperfusion model (30-min coronary occlusion, 4-hr reperfusion), infarct size; type: in vivo; details: for increase of infarct size (IS): pre-ischemic infusion (10-min), ICI-118551 100 μg/kg/min, CGRP8-37 3 ng/kg/min, n=8/group; for effect on infarct size (in words): infusion at late ischemia-early reperfusion
From the text: N=6 rats/group. […] Yellow zone within the red is the infarcted area. Red zone is the area-at-risk supplied by the occluded left anterior descending coronary artery. Blue zone is non-risk zone supplied by no-occluded right and circumflex coronary arteries. Infarct size is normalized as the ration of yellow-area/red-area. Acute infarction-reperfusion model consists of 30-minute occlusion of the left anterior descending coronary artery followed by four-hour reperfusion. Infarct-size was quantified at the end of four-hour reperfusion. N=6 rats/group. Inventors used rat MI model (30-min ischemia and 4 h reperfusion). […] The effect of combination therapy on myocyte protection was further assessed in a simulated ischemia-reperfusion model of isolated rat ventricular myocytes (2-hr ischemia and 1-hr reperfusion). […] The mechanisms underlying combination therapy were determined by assessing myocardial PKA and PKC activity in normal rats. […] Experimental Myocardial Ischemia-Reperfusion Model. The rat myocardial ischemia-reperfusion model will be used (Birnbaum et al., 2005; Huang et al., 2007a). This model consists of 30 min coronary artery occlusion followed by 4-hr reperfusion. […] To determine the effect of β1-adrenergic receptor antagonist and the synergistic action of both PKA activator and β1-adrenergic receptor antagonist, esmolol ([…]) will be intravenously infused to rats with or without milrinone. Arterial blood pressure and heart rate will be monitored continuously throughout the experiments. Method for in vivo myocardial infarct study: Following anesthesia and ventilation support, the chest is opened and the left coronary artery encircled with a suture and ligated for 30 min. The snare is then released and myocardium reperfused for 4 hr. The left coronary artery is then reoccluded and Evan's blue dye injected into the right ventricle. The LV is sliced into 6-7 sections. […] The areas of ischemia and necrosis in each slice are determined by planimetry, converted into percentages of the whole for each slice, and multiplied by the weight of the slice.

[2] = cited from earlier work
[3] = test system: acute myocardial infarction; details: rat model, administration before the onset of acute myocardial infarction; cited from earlier work
[4] = test system: acute myocardial infarction; details: canine model, administration 30-min after the onset of acute myocardial infarction; cited from earlier work
[5] = test system: isolated rat ventricular myocytes; experiment: simulated ischemia-reperfusion of isolated rat ventricular myocytes (2-hr hypoxia, 1-hr re-oxygenation), myocyte death; type: cell-based
Protocol: In vitro myocyte ischemia/reperfusion study consists of 2-hour hypoxia followed by 1-hour re-oxygenation. Hypoxia is created by layering mineral oil over the cells. Re-oxygenation is made by removal of the oil. Myocyte death is quantified at the end of 1-hour reperfusion.
(§1) Inventors used rat MI model (30-min ischemia and 4 h reperfusion). […] The effect of combination therapy on myocyte protection was further assessed in a simulated ischemia-reperfusion model of isolated rat ventricular myocytes (2-hr ischemia and 1-hr reperfusion). […] The mechanisms underlying combination therapy were determined by assessing myocardial PKA and PKC activity in normal rats.
To verify that infarct-size reducing or limiting effect is a direct product of PKA activation on myocyte survival but not a secondary effect due to salutatory coronary/systemic hemodynamic alternations, the inventors tested the effect of PKA activation by milrinone on isolated rat ventricular myocytes in primary culture. In vitro myocyte ischemia-reperfusion study consists of 2-hour hypoxia followed by 1-hour re-oxygenation. Hypoxia is created by layering mineral oil over the cells. Re-oxygenation is made by removal of the oil. Myocyte death is quantified at the end of 1-hour reperfusion.

[6] = test system: PKA; experiment: myocardial PKA activity after IV infusion in normal rats; type: in vivo, rat; details: 10-min tail vein infusion, peaked at 5-min post-infusion, ventricular tissue
Protocol: as §1

[7] = milrinone 5 μg/kg/min, esmolol 10 μg/kg/min

**Q.** For `Cc1ccc(OCC(O)C(C)NC(C)C)c2c1CCC2` (centres unmarked) [ICI-118551], which “increase of infarct size (IS)” value [1] is on record?
**A.** The value was 44%.

**Q.** Which results are given for `COc1cccc2c1C(=O)c1c(O)c3c(c(O)c1C2=O)C[C@@](O)(C(=O)CO)C[C@@H]3O[C@H]1C[C@H](N)[C@H](O)[C@H](C)O1` [doxorubicin]?
**A.** incidence of doxorubicin-induced cardiomyopathy ([2]; dose of 501-550 mg/m^2 body surface area, patients): > 5%; incidence of doxorubicin-induced cardiomyopathy ([2]; dose over 550 mg/m^2, patients): 30%

**Q.** Which “effect on infarct size (in words)” value [1, 7] does the source give for `COC(=O)CCc1ccc(OCC(O)CNC(C)C)cc1` (centres unmarked) [esmolol] here?
**A.** The value was “did not change infarct size”.

**Q.** Which results are given for `Cc1[nH]c(=O)c(C#N)cc1-c1ccncc1` [milrinone]?
**A.** effect on infarct size, given before onset of infarction (preconditioning) [3]: infarct-size reduction; infarct-size reduction compared with saline control ([1]; 10-minute infusion from last 5 minutes of 30-minute ischemia to first 5 minutes of four-hour reperfusion, milrinone 5 μg/kg/min, esmolol 10 μg/kg/min, N=6 rats/group): 53±5%; effect on infarct size (in words) [1, 7]: robust infarct-size reduction; effect on infarct size, given after onset of infarction [4]: no infarct-size reduction; milrinone-induced myocyte protection in presence of PKA inhibitor ([5]; cells pretreated with PKA inhibitor Rp-CAMP 100 μmol/L): abolished; reduction of myocyte death compared to saline control ([5]; milrinone 4.7 μmol/L, thirty minutes after the onset of ischemia): 11%

**Q.** For `CC(C)(C)NCC(O)c1cc(O)cc(O)c1` (centres unmarked) [terbutaline], which “effect on infarct size (IS) of single agent (in words)” value ([1]; CGRP or terbutaline alone, late ischemia-early reperfusion) is on record?
**A.** Its value is “did not reduce IS”.

**Q.** And the “increase of PKA activity” value [6]?
**A.** Its value is 30%.

**Q.** And the “myocyte survival benefit of single agent (in words)” value ([5]; CGRP or terbutaline alone)?
**A.** The value was “no myocyte survival benefit”.

**Q.** For “CGRP8-37: CGRP-receptor blocker (VTHRLAGLLSRSGGVVKNNFVPTNVGSKAF; ends and bridges not checked; UniProt P06881 90-119, looked up, fragment)”, which “increase of infarct size (IS)” value [1] is on record?
**A.** Its value is 36%.
